Results on 13 compounds are retold here after patent US20110059043A1, “CHEMICAL COMPOUNDS” (priority 2009, published 2011).

Data set [1] has as its system HCV replicon cells Huh 9B. In words: HCV replicon assay (luciferase). Type of data set: cell-based. The settings on record: Hepatitis C virus, reduction of replicon level by 50% vs untreated cell control, 72 h. The method, then: (§1) HCV replicon cells Huh 9B (ReBlikon), containing the firefly luciferase—ubiquitin—neomycin phosphotransferase fusion protein and EMCV-IRES driven HCV polyprotein with cell culture adaptive mutations.
(§2) Cells were cultured at 37° C. in a 5% CO2 environment and split twice a week on seeding at 2×10^6 cells/flask on day 1 and 1×10^6 3 days later. G418 at 0.5 mg/ml was added to the culture medium but not the assay medium. The culture medium consisted of DMEM with […] glucose and glutamax (Gibco 61965-026) supplemented with 1×non-essential amino acids (Invitrogen 11140-035), penicillin (100 IU/ml)/streptomycin (100 μg/ml) (Invitrogen 15140-122), FCS (10%, 50 ml) and […] (Invitrogen 10131-027) & 10% Australian foetal calf serum (Invitrogen 10099-141).
(§3) A flask of cells was trypsinised and a cell count carried out. Cells were diluted to 100,000 cells/ml and 100 μl of this used to seed one opaque white 96-well plate (for the replicon assay) and one flat-bottomed clear plate (for the tox assay) for every five compounds to be tested for IC50. Wells G12 and H12 were left empty in the clear plate as the blank. Plates were then incubated at 37° C. in a 5% CO2 environment for 24 h.
(§4) On the following day compound dilutions are made up in medium at twice their desired final concentration in a clear round bottomed plate. All dilutions have a final DMSO concentration of 1%.
(§5) Once the dilution plate had been made up, controls and compounds were transferred to the assay plates (containing the cells) at 100 μl/well in duplicate wells. Exception: no compound was added to wells A1 and A2 of either plate and 100 μl of 1% DMSO was added to these instead. Plates were then incubated at 37° C. with 5% CO2 for 72 h.
At the end of the incubation time, the cells in the white plate were harvested by washing in PBS (100 μL per well) and gently tapping dry before addition of […] of lysis buffer (25 mM tris-phosphate, 8 mM MgCl2, 1 mM DTT, 1% Triton X-100, 15% glycerol. pH to 7.8 using KH2PO4 prior to triton and glycerol addition. Substrate was prepared: 23.5 mM beetle luciferin (Promega E1603), 26 mM ATP (Sigma O-2060) in […] Tris buffer pH 7.8 aliquoted and stored at −80° C. was thawed and diluted 1:50 in luciferase assay buffer (20 mM Tricine (Sigma T-0377), 1.07 mM magnesium carbonate hydroxide (Sigma M-5671), 0.1 mM EDTA (Sigma E-5134), 2.67 mM MgSO4(BDH 101514Y), 33.3 mM dithiothreitol (Sigma 150460) pH 7.8).
The M injector of the microplate luminometer (Lmax, Molecular Devices) was primed with 5×300 μl injections of the diluted substrate. After 5-60 min incubation in lysis buffer at room temperature, a plate was inserted into the luminometer and 100 μl luciferase assay reagent was added by the injector on the luminometer. The signal was measured using a 1 second delay followed by a 4 second measurement programme. The IC50, the concentration of the drug required for reducing the replicon level by 50% in relation to the untreated cell control value, can be calculated from the plot of the percentage reduction of the luciferase activity vs. drug concentration.
In general terms: Replicon systems follow genome replication, usually without infectious particles.

For data set [2], the system named is HCV replicon cells Huh 9B. Type of data set: cell-based. The settings on record: concentration reducing total cell area by 50% relative to DMSO controls; 72 h. As for the experimental part: as §1, §2, §3, §4, §5
The clear plate was stained with 100 μl 0.5% methylene blue in 50% ethanol at room temperature for lh, followed by solvation of the absorbed methylene blue in 100 μl per well of 1% lauroylsarcosine. Absorbance of the plate was measured on a microplate spectrophotometer (Molecular Devices) and the absorbance for each concentration of compound expressed as a proportion of the relative DMSO control. The TD50, the concentration of drug required to reduce the total cell area by 50% relative to the DMSO controls, can be calculated by plotting the absorbance at 620 nm minus background against drug concentration.

Data set [3] deals with T1, Recombinant HCV polymerase (BK strain) (Hepatitis C virus genotype 1b, UniProt P26663).
T1 construct: Recombinant HCV polymerase (BK strain) was expressed and purified from E. coli with a 21 amino acid C-terminal deletion; His6; made in house; host or cells: E. coli
T1 sequence (P26663 2420-2989): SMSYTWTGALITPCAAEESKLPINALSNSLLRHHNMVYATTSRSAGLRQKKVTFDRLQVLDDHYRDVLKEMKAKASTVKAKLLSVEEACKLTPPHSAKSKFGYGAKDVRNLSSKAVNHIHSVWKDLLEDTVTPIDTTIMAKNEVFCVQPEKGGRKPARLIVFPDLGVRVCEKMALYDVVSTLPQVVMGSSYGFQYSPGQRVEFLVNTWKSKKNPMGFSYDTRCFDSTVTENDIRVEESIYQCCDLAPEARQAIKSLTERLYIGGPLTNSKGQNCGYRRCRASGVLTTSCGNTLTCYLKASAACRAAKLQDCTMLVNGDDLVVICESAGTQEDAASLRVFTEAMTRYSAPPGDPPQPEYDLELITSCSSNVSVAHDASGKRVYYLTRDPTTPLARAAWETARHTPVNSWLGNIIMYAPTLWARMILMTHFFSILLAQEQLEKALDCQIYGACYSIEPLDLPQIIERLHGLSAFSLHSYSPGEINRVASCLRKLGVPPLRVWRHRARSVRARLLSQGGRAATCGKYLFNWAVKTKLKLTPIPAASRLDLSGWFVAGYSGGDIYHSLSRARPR
The data set can be described thus: HCV polymerase enzyme assay (radiometric [33P]-UTP incorporation). Type of data set: biochemical, HCV 1b. The method, then: Compounds were tested for inhibition of HCV polymerase using a radiometric [^33P]-UTP incorporation assay and a biotinylated U13:PolyA primer:template RNA substrate.
Recombinant HCV polymerase (BK strain) was expressed and purified from E. coli with a 21 amino acid C-terminal deletion and a His6-tag. The general assay buffer consisted of 20 mM Tris (pH 7.5), 25 mM KCl, 5 mM MgCl2, 3 mM DTT, 0.5 mg/ml BSA, 0.01% Tween20. The standard reaction, in 96 well plates, contained 10 μl of diluted compound, 50 μl of substrate and 40 μl of enzyme. Compounds, supplied as 10 mM stocks in DMSO, were diluted initially in neat DMSO, and subsequently buffer was added to give a DMSO concentration of 30%; 10 μl of this was added to the assay plate to give a final concentration in the 100 μl assay of 3% DMSO. The biotinylated U13:PolyA RNA substrate was pre-annealed with 40 μM 5′-biotinylated U13 (Dharmacon) and 213 μg/ml PolyA (Amersham Biosciences) in water incubated at 70° C. for 5 minutes before being cooled on ice. Substrate (50 μl) was added in buffer to give a final concentration in the 100 μl assay of 125 nM biotinylated U13:0.63 μg/ml PolyA and 200 nM UTP with 0.4 μCi [^33P]-UTP per well (Perkin Elmer). The reaction was initiated by the addition of 40 μl of enzyme in buffer to give 100 nM final concentration. The reaction was incubated at 25° C. for 100 minutes and then stopped by addition of 100 μl of 100 mM EDTA. The samples were then transferred to 96 well Streptavidin-coated FlashPlates (Perkin Elmer) and incubated at room temperature for ˜1 hour to allow binding to occur. The plates were then washed three times with phosphate-buffered saline containing 0.05% Tween20 in an automated plate washer to remove unincorporated [^33P]-UTP, and then counted in a
Each plate included a set of positive controls (no compound, maximum signal) and negative controls (no enzyme, minimum signal) and in each run at least one reference is compound was included to validate the assay. The IC50, concentration required to inhibit the enzyme activity by 50%, was calculated using an 8-point IC50 curve and fitted using the program XLfit (IDBS).

With `CC(=O)NCCCOc1ccc(Cl)cc1C(=O)NC1N=C(c2c(Cl)cc(Cl)cc2Cl)c2ccccc2NC1=O` (stereo not drawn) [Example 25, 2-(3-Acetamidopropoxy)-5-chloro-N-(2-oxo-5-(2,4,6-trichlorophenyl)-2,3-dihydro-1H-benzo[e][1,4]diazepin-3-yl)benzamide], the IC50 in data set [1] worked out at 575 nM; in data set [3], 459 nM. Moreover, the “Replicon Assay Value TD50” value in data set [2] amounted to 12.774 µM.

`CCOCCOCCOc1ccc(Cl)cc1C(=O)NC1N=C(c2c(Cl)cc(Cl)cc2Cl)c2ccccc2NC1=O` (stereo not drawn) [Example 8, 5-Chloro-2-(2-(2-ethoxyethoxy)ethoxy)-N-(2-oxo-5-(2,4,6-trichlorophenyl)-2,3-dihydro-1H-benzo[e][1,4]diazepin-3-yl)benzamide]: the results for the half-inhibitory concentration (IC50) in data set [1] and in data set [3] were 1340 nM and 1070 nM, respectively. The “Replicon Assay Value TD50” value in data set [2] was determined as 11.724 µM.

As to `COCCOc1ccc(OC(F)(F)F)cc1C(=O)NC1N=C(c2c(Cl)cc(Cl)cc2Cl)c2ccccc2NC1=O` (stereo not drawn) [Example 19, 2-(2-Methoxyethoxy)-N-(2-oxo-5-(2,4,6-trichlorophenyl)-2,3-dihydro-1H-benzo[e][1,4]diazepin-3-yl)-5-(trifluoromethoxy)benzamide], the IC50 in data set [1] was found to be 645 nM; in data set [3] it was 2150 nM. The “Replicon Assay Value TD50” value in data set [2] was >25 µM.

Consider `CCOc1cc(Cl)cc(Cl)c1C1=NC(NC(=O)c2cc(F)cnc2OCCOC)C(=O)Nc2ccccc21` (stereo not drawn) [Example 57, N-(5-(2,4-Dichloro-6-ethoxyphenyl)-2-oxo-2,3-dihydro-1H-benzo[e][1,4]diazepin-3-yl)-5-fluoro-2-(2-methoxyethoxy)nicotinamide], for which the 50% inhibitory concentration (IC50) was 20.3 nM in data set [1] and 72 nM in data set [3]. For the same compound, the “Replicon Assay Value TD50” value in data set [2] worked out at 22.698 µM.

Consider `CN(C)CCCOc1ccc(Cl)cc1C(=O)NC1N=C(c2c(Cl)cc(Cl)cc2Cl)c2ccccc2NC1=O` (stereo not drawn) [Example 12, 5-Chloro-2-(3-(dimethylamino)propoxy)-N-(2-oxo-5-(2,4,6-trichlorophenyl)-2,3-dihydro-1H-benzo[e][1,4]diazepin-3-yl)benzamide], for which the values for the half-maximal inhibitory concentration (IC50) in data set [1] and in data set [3] were 5510 nM and 3130 nM, respectively. In data set [2], the “Replicon Assay Value TD50” value came to 4.253 µM.

Turning to `COCCOc1ncc(Cl)cc1C(=O)NC1N=C(c2c(Cl)cc(Cl)cc2CN2CCOCC2)c2ccccc2NC1=O` (stereo not drawn) [Example 51, 5-Chloro-N-(5-(2,4-dichloro-6-(morpholinomethyl)phenyl)-2-oxo-2,3-dihydro-1H-benzo[e][1,4]diazepin-3-yl)-2-(2-methoxyethoxy)nicotinamide], the IC50 in data set [1] came to 281 nM; in data set [3] it was 1230 nM. The “Replicon Assay Value TD50” value in data set [2] was >25 µM.

On to `CCC(=O)NCCOc1ccc(Cl)cc1C(=O)NC1N=C(c2c(Cl)cc(Cl)cc2Cl)c2ccccc2NC1=O` (stereo not drawn) [Example 22, 5-Chloro-N-(2-oxo-5-(2,4,6-trichlorophenyl)-2,3-dihydro-1H-benzo[e][1,4]diazepin-3-yl)-2-(2-propionamidoethoxy)benzamide], for which the IC50 in data set [1] worked out at 953 nM; in data set [3], 197 nM. Further, the “Replicon Assay Value TD50” value in data set [2] was 12.304 µM.

As for `COCCN(C)c1ncc(F)cc1C(=O)N[C@@H]1N=C(c2c(Cl)cc(Cl)cc2Cl)c2ccccc2NC1=O` [Example 68, (R)-5-Fluoro-2-((2-methoxyethyl)(methyl)amino)-N-(2-oxo-5-(2,4,6-trichlorophenyl)-2,3-dihydro-1H-benzo[e][1,4]diazepin-3-yl)nicotinamide], the IC50 in data set [1] stood at 360 nM; in data set [3], 5170 nM. For the same compound, in data set [2], the “Replicon Assay Value TD50” value turned out to be 16.618 µM.

For the compound `CCOCCOc1ccc(Cl)cc1C(=O)NC1N=C(c2c(Cl)cc(Cl)cc2Cl)c2ccccc2NC1=O` (stereo not drawn) [Example 3, 5-Chloro-2-(2-ethoxyethoxy)-N-(2-oxo-5-(2,4,6-trichlorophenyl)-2,3-dihydro-1H-benzo[e][1,4]diazepin-3-yl)benzamide], the half-maximal inhibitory concentration (IC50) turned out to be 82.9 nM in data set [1] and 111 nM in data set [3]. In addition, the “Replicon Assay Value TD50” value in data set [2] was found to be 16.177 µM.

For `COCCOc1ccc(F)cc1C(=O)N[C@@H]1N=C(c2c(Cl)cc(Cl)cc2Cl)c2ccccc2NC1=O` [Example 62, (R)-5-Fluoro-2-(2-methoxyethoxy)-N-(2-oxo-5-(2,4,6-trichlorophenyl)-2,3-dihydro-1H-benzo[e][1,4]diazepin-3-yl)benzamide], the IC50 came to 594 nM in data set [1] and 16800 nM in data set [3]. Besides, in data set [2], the “Replicon Assay Value TD50” value was determined as 24.765 µM.

Take `COCCOCCOc1ncc(F)cc1C(=O)NC1N=C(c2c(Cl)cc(Cl)cc2Cl)c2ccccc2NC1=O` (stereo not drawn) [Example 37, 5-Fluoro-2-(2-(2-methoxyethoxy)ethoxy)-N-(2-oxo-5-(2,4,6-trichlorophenyl)-2,3-dihydro-1H-benzo[e][1,4]diazepin-3-yl)nicotinamide]: the IC50 in data set [1] was found to be 263 nM; in data set [3] it was 102 nM. Besides, the “Replicon Assay Value TD50” value in data set [2] is 23.09 µM.

In the case of `CCOCCOc1ncc(F)cc1C(=O)N[C@@H]1N=C(c2c(Cl)cc(Cl)cc2Cl)c2ccccc2NC1=O` [Example 66, (R)-2-(2-Ethoxyethoxy)-5-fluoro-N-(2-oxo-5-(2,4,6-trichlorophenyl)-2,3-dihydro-1H-benzo[e][1,4]diazepin-3-yl)nicotinamide], the half-maximal inhibitory concentration (IC50) in data set [1] is 163 nM; in data set [3] it was 2220 nM. Moreover, in data set [2], the “Replicon Assay Value TD50” value came out at 16.686 µM.

In the case of `COCCOc1nccc(C)c1C(=O)NC1N=C(c2c(Cl)cc(Cl)cc2Cl)c2ccccc2NC1=O` (stereo not drawn) [Example 40, 2-(2-Methoxyethoxy)-4-methyl-N-(2-oxo-5-(2,4,6-trichlorophenyl)-2,3-dihydro-1H-benzo[e][1,4]diazepin-3-yl)nicotinamide], the half-inhibitory concentration (IC50) in data set [1] was determined as 856 nM; in data set [3] it was 2960 nM. Also, the “Replicon Assay Value TD50” value in data set [2] came out at 24.518 µM.

A word on the IC50: it is the point on the concentration scale where inhibition reaches its midpoint.
